What all share (format): biochemical
For assay [1], the target named is PI3K β (Homo sapiens (Human), UniProt P42338). Description: PI 3-Kinase (human) HTRF assay, p110β/p85α. A general note: TR-FRET usually uses a lanthanide donor and a delayed reading to cut background.
A short description of assay [2]: PI 3-Kinase (human) HTRF assay, p110δ/p85α. Conditions: read-out: PI3K γ IC50.
The target of assay [3] is PI3K γ (Homo sapiens (Human), UniProt P48736). Description: PI 3-Kinase (human) HTRF assay, p110γ.
For assay [4], the target named is PI3K α (Homo sapiens (Human), UniProt P42336). The assay can be described thus: PI 3-Kinase (human) HTRF assay, p110α/p85α.
PI3K α, sequence (P42336 whole entry): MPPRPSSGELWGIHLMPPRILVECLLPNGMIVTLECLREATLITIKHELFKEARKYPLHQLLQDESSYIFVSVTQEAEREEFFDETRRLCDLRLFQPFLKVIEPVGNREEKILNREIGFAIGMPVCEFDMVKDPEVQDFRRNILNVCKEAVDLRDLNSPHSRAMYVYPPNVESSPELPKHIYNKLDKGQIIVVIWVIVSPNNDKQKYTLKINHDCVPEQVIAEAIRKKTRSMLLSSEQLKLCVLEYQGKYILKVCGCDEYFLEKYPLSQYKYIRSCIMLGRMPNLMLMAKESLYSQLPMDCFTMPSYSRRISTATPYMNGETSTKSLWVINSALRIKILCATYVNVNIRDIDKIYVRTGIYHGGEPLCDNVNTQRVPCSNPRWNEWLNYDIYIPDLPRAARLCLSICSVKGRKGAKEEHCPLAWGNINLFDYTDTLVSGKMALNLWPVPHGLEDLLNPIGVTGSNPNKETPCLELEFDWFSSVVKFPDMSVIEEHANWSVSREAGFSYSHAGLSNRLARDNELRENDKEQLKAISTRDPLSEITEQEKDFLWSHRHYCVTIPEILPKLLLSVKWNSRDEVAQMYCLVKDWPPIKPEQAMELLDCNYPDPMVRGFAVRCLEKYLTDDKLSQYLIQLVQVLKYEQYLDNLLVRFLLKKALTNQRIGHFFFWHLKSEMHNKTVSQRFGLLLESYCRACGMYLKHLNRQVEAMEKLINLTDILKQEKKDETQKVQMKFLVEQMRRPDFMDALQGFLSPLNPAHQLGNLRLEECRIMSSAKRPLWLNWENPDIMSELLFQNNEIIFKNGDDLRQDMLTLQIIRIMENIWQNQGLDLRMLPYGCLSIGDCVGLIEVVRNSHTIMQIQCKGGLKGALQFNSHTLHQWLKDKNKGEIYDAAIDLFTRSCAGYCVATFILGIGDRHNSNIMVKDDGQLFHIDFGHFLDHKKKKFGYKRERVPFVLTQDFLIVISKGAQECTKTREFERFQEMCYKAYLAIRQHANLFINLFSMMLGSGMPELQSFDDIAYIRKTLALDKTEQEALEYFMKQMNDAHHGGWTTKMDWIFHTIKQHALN
PI3K α, sequence (P27986 whole entry partner): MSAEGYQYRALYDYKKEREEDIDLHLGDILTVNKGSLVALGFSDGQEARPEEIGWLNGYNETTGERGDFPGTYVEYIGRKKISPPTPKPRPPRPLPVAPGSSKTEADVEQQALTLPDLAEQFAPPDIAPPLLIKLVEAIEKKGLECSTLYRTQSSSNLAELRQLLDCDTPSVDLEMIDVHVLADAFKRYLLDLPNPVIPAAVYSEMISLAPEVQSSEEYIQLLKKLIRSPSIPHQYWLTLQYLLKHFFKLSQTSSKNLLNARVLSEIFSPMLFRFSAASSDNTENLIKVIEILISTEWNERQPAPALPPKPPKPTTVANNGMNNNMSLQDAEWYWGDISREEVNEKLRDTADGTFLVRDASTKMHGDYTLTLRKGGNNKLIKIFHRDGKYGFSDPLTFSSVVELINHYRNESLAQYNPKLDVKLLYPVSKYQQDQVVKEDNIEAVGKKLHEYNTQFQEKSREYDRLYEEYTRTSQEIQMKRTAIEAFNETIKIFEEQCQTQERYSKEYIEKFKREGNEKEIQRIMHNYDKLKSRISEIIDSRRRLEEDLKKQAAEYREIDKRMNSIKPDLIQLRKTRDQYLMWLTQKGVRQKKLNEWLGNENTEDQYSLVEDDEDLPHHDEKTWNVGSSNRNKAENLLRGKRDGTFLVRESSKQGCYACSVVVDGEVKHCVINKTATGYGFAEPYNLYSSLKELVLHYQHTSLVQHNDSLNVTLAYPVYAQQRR

Where two headings read alike, the source gives them in different places.

Broadly, the IC50 is the concentration at which inhibition is half-maximal.

PI3K β, sequence (P42338 whole entry): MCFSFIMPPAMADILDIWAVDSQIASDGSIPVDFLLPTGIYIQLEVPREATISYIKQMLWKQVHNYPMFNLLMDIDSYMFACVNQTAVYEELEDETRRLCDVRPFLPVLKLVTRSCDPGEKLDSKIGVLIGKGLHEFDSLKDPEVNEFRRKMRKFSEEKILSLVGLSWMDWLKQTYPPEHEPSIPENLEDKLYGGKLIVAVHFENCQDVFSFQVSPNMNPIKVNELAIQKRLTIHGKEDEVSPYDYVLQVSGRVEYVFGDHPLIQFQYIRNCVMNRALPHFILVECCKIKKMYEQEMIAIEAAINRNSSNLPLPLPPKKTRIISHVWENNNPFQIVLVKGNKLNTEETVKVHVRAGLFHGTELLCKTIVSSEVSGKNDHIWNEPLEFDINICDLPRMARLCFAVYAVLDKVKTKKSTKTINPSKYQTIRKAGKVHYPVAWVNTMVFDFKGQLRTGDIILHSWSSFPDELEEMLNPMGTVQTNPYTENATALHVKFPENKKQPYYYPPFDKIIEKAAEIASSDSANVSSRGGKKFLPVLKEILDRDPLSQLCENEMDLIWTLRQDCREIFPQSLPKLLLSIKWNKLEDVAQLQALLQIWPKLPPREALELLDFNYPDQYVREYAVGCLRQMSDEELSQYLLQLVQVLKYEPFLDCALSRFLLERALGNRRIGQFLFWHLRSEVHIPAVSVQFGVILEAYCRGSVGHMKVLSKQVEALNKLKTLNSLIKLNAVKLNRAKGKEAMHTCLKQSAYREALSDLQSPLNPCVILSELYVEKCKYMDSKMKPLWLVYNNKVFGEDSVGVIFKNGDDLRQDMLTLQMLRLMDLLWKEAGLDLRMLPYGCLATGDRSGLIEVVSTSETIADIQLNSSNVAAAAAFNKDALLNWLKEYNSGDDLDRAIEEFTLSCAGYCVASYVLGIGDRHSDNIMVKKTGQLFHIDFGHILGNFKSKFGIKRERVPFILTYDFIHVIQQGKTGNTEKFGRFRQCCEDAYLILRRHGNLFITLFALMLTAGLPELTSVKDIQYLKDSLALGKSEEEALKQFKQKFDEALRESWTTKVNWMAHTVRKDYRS
PI3K β, sequence (P27986 whole entry partner): as the sequence (P27986 whole entry partner) above

For `CN(C)C1CCN(C(=O)c2cnc3ccc(-c4ccc5oc(N)nc5c4)cn23)CC1`, the IC50 is > 10 µM in assay [1], > 10 µM in assay [2], > 10 µM in assay [3] (read-out: PI3K δ IC50) and < 1 µM in assay [4].

Take `C[C@H](N)C(=O)N1CCN(c2cnc3ccc(-c4ccc5oc(N)nc5c4)cc3n2)CC1`: the IC50 was < 0.1 µM in assay [1], < 1 µM in assay [2], < 0.1 µM in assay [3] (read-out: PI3K δ IC50) and < 0.1 µM in assay [4].

With `C[C@H]1CN(C2CN(C(=O)c3cnc4ccc(-c5ccc6oc(N)nc6c5)cn34)C2)CCN1C`, the IC50 in assay [1] was < 10 µM; in assay [2], < 1 µM; in assay [3] (read-out: PI3K δ IC50), < 10 µM; in assay [4] it was < 0.1 µM.

Regarding `Cc1cc(-c2ccc3ncc(C(=O)N4CCOCC4)n3c2)cc2nc(N)oc12`, the IC50 in assay [1] was < 10 µM; in assay [2], > 10 µM; in assay [3] (read-out: PI3K δ IC50), < 1 µM; in assay [4], < 1 µM.

For `COc1ncc(-c2ccc3ncc(C(=O)N4CCOCC4)n3c2)cc1NS(C)(=O)=O`, the IC50 in assay [1] is < 10 µM; in assay [2], < 10 µM; in assay [3] (read-out: PI3K δ IC50), < 1 µM; in assay [4], < 0.1 µM.

Turning to `C[C@@H]1CN(c2cnc3ccc(-c4ccc5oc(N)nc5c4)nc3n2)CCN1`, the IC50 in assay [1] is < 0.1 µM; in assay [3] (read-out: PI3K γ IC50), < 1 µM; in assay [4] it was < 0.1 µM.

For `CNc1noc2cc(-c3ccc4ncc(C(=O)N5CCOCC5)n4c3)ccc12`, the IC50 was > 10 µM in assay [1], > 10 µM in assay [2], < 10 µM in assay [3] (read-out: PI3K δ IC50) and < 10 µM in assay [4].

In the case of `CC(=O)Nc1nc(C)c(-c2ccc3oc(N)nc3c2)s1`, the IC50 is < 10 µM in assay [1], < 1 µM in assay [2], < 0.1 µM in assay [3] (read-out: PI3K δ IC50) and < 1 µM in assay [4].

For `NC(=O)[C@@H]1CCCN1C(=O)C1CN(c2cnc3ccc(-c4ccc5oc(N)nc5c4)cc3n2)C1`, the IC50 in assay [1] was > 10 µM; in assay [2], > 10 µM; in assay [3] (read-out: PI3K δ IC50), < 1 µM; in assay [4], < 0.1 µM.

With `Nc1nc2cc(-c3ccn4ncc(-c5ccncc5)c4c3)ccc2o1`, the IC50 in assay [1], in assay [2], in assay [3] (read-out: PI3K δ IC50) and in assay [4] was < 0.1 µM each time.

For the compound `Nc1nc2cc(-c3ccc4ncc(C(=O)N5CC6(C5)OCCO6)n4c3)ccc2o1`, the IC50 in assay [1] is < 10 µM; in assay [2], > 10 µM; in assay [3] (read-out: PI3K δ IC50) it was < 1 µM; in assay [4] it was < 0.1 µM.

For the compound `Nc1nc2ccc(-c3cc(F)c4ncc(C(=O)N5CCOCC5)n4c3)cc2o1`, the IC50 in assay [1] was > 10 µM; in assay [2], > 10 µM; in assay [3] (read-out: PI3K δ IC50), > 10 µM; in assay [4], < 10 µM.

In the case of `CS(=O)(=O)Nc1cc(-c2ccc3ncc(C(=O)N4CCOCC4)n3c2)ccc1Cl`, the IC50 in assay [1] was > 10 µM; in assay [2], > 10 µM; in assay [3] (read-out: PI3K δ IC50), > 10 µM; in assay [4], < 10 µM.

Regarding `Cc1cc2oc(N)nc2cc1-c1ccc2ncc(N3CCN[C@@H](C)C3)nc2c1`, the IC50 is < 1 µM in assay [1], > 10 µM in assay [2], > 10 µM in assay [3] (read-out: PI3K δ IC50) and < 10 µM in assay [4].

`Nc1nc2cc(-c3ccc4ncn(CCN5CCOCC5)c(=O)c4c3)ccc2o1`: the IC50 in assay [1] was < 10 µM; in assay [2], > 10 µM; in assay [3] (read-out: PI3K δ IC50), < 1 µM; in assay [4], < 1 µM.

As to `C[C@H]1CN(c2cnc3ccc(-c4cccc5nc(N)oc45)cc3n2)CCN1`, the IC50 in assay [1], in assay [2], in assay [3] (read-out: PI3K δ IC50) and in assay [4] was > 10 µM in each case.

On to `Nc1nc2cc(-c3ccn4ncc(C(=O)N5CCCC5)c4c3)ccc2o1`, for which the IC50 is < 10 µM in assay [1], > 10 µM in assay [2], < 1 µM in assay [3] (read-out: PI3K δ IC50) and < 0.1 µM in assay [4].

With `CC(C)N1CCN(c2cnc3ccc(-c4ccc5oc(N)nc5c4)cc3n2)C(=O)C1`, the IC50 in assay [1], in assay [2], in assay [3] (read-out: PI3K δ IC50) and in assay [4] was > 10 µM throughout.

As to `CC(C)N1CCC(n2cnc3ccc(-c4cnc(Cl)c(NS(C)(=O)=O)c4)cc3c2=O)CC1`, the IC50 in assay [1] was < 1 µM; in assay [2], < 0.1 µM; in assay [3] (read-out: PI3K δ IC50) it was < 0.1 µM; in assay [4], < 0.1 µM.

With `Nc1cn2cc(-c3ccc4nc(N)oc4c3)ccc2n1`, the IC50 in assay [1] was < 10 µM; in assay [2], > 10 µM; in assay [3] (read-out: PI3K δ IC50), < 10 µM; in assay [4], > 10 µM.

On to `C[C@H]1CN(c2cnc3ccc(-c4cccc5c(N)nsc45)cc3n2)CCN1`, for which the IC50 in assay [1], in assay [2], in assay [3] (read-out: PI3K δ IC50) and in assay [4] was > 10 µM throughout.

As to `CC(=O)Nc1nc2cc(-c3ccc4oc(N)nc4c3)ccc2o1`, the IC50 in assay [1], in assay [2], in assay [3] (read-out: PI3K δ IC50) and in assay [4] was > 10 µM in each case.

Take `Nc1cn2cc(-c3ccc4oc(N)nc4c3)ccc2n1`: the IC50 in assay [1] was < 10 µM; in assay [2], > 10 µM; in assay [3] (read-out: PI3K δ IC50) it was < 1 µM; in assay [4], < 1 µM.

`Nc1nc2ccc(-c3ccc4nc(N)oc4c3)cc2o1`: the IC50 in assay [1], in assay [2], in assay [3] (read-out: PI3K δ IC50) and in assay [4] was > 10 µM throughout.

Regarding `CN1CCC(n2cnc3ccc(-c4cnc(Cl)c(NS(=O)(=O)c5ccccc5)c4)cc3c2=O)CC1`, the IC50 in assay [1] was < 0.1 µM; in assay [2], < 0.1 µM; in assay [3] (read-out: PI3K δ IC50), < 1 µM; in assay [4], < 0.1 µM.

Consider `Nc1nc2cc(-c3ccc4ncc(N5CCC(n6cccn6)CC5)nc4c3)ccc2o1`, for which the IC50 in assay [1] was > 10 µM; in assay [2] it was > 10 µM; in assay [3] (read-out: PI3K δ IC50) it was < 1 µM; in assay [4] it was < 0.1 µM.

As for `CC(=O)Nc1nc2cc(-c3ccc4oc(N)nc4c3)ccc2s1`, the IC50 in assay [1] was > 10 µM; in assay [2], > 10 µM; in assay [3] (read-out: PI3K δ IC50) it was < 0.1 µM; in assay [4], > 10 µM.

As to `CN(C)CC(=O)N1CCN(c2cnc3ccc(-c4ccc5oc(N)nc5c4)cc3n2)CC1` [drawing 407], the IC50 in assay [2] and in assay [3] (read-out: PI3K δ IC50) was < 1 µM in each case.

Consider `C[C@@H]1CN(C2CN(c3cnc4ccc(-c5ccc6oc(N)nc6c5)nc4n3)C2)CCN1C`, for which the IC50 in assay [1] is > 10 µM; in assay [3] (read-out: PI3K γ IC50) it was < 10 µM; in assay [4] it was < 0.1 µM.

Take `Cc1c(-c2ccc3oc(N)nc3c2)ccc2ncc(N3CC(N4CCNCC4)C3)nc12`: the IC50 in assay [1] is > 10 µM; in assay [2], > 10 µM; in assay [4] it was < 0.1 µM.

Turning to `CN1CCN(c2cnc3ccc(-c4ccc5oc(N)nc5c4)cc3n2)C(=O)C1`, the IC50 in assay [3] (read-out: PI3K δ IC50) was > 10 µM; in assay [4], < 10 µM.

Take `CC1CN(C(=O)c2cnc3ccc(-c4ccc5oc(N)nc5c4)cn23)CCO1` (stereo not drawn): the IC50 in assay [1] is < 10 µM; in assay [2] it was > 10 µM; in assay [4], < 0.1 µM.

`Nc1nc2cc(-c3ccc4ncc(C(=O)N5CCC(O)C5)n4c3)ccc2o1` (stereo not drawn): the IC50 in assay [1] was < 10 µM; in assay [2], < 10 µM; in assay [4], < 0.1 µM.

As for `COc1ncc(-c2ccc3ncn(C4CCN(C)CC4)c(=O)c3c2)cc1NS(C)(=O)=O`, the IC50 in assay [1] was < 1 µM; in assay [3] (read-out: PI3K δ IC50) it was < 10 µM; in assay [4], < 0.1 µM.

(Values after US9682141B2, “Combination of kinase inhibitors and uses thereof” (INTELLIKINE LLC, priority 2011, dated 2017).)
